What was measured:
FLT3 = biological target: T1, FLT3 (Homo sapiens, UniProt P36888); assay: TR-FRET kinase activity assay, FLT3; format: biochemical; conditions: ATP at Km, 60 minutes
T1 sequence (P36888 27-993): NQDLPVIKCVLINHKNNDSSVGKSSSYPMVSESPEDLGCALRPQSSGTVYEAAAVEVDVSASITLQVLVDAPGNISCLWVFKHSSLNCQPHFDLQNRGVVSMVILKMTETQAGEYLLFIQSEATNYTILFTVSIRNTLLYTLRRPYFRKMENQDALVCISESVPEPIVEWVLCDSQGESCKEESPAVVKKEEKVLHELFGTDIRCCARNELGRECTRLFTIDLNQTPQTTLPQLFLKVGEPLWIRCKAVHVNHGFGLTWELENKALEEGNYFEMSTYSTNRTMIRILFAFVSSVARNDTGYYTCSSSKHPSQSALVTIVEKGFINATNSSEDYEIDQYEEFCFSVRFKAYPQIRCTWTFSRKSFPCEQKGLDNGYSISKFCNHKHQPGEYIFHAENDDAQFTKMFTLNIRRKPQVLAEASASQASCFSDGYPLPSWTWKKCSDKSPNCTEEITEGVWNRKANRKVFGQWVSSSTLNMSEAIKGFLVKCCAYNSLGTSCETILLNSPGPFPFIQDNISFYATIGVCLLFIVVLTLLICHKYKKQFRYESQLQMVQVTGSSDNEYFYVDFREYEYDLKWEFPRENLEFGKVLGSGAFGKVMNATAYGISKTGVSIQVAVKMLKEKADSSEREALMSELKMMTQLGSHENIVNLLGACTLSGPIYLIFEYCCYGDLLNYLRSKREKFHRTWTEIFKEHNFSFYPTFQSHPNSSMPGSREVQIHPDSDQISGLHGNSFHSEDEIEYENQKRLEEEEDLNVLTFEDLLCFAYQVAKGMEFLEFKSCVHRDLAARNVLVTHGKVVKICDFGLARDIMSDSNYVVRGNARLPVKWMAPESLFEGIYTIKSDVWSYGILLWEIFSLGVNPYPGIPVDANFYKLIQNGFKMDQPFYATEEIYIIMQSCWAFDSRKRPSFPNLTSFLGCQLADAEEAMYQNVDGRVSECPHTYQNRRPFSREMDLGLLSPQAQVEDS
In short: (§1)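 Compounds were tested against each kinase with ATP set at its own Km and a labelled tyrosine peptide substrate. Following one hour at room temperature in buffer containing 10 mM MgCl2 and 1 mM DTT, phosphorylated product was detected by Europium antibody TR-FRET after EDTA quench, and IC50 values were calculated.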

TYRO3 = biological target: T2, TYRO3 (Homo sapiens, UniProt Q06418); assay: TR-FRET kinase activity assay, TYRO3; format: biochemical; conditions: ATP at Km, 60 minutes
T2 sequence (Q06418 41-890): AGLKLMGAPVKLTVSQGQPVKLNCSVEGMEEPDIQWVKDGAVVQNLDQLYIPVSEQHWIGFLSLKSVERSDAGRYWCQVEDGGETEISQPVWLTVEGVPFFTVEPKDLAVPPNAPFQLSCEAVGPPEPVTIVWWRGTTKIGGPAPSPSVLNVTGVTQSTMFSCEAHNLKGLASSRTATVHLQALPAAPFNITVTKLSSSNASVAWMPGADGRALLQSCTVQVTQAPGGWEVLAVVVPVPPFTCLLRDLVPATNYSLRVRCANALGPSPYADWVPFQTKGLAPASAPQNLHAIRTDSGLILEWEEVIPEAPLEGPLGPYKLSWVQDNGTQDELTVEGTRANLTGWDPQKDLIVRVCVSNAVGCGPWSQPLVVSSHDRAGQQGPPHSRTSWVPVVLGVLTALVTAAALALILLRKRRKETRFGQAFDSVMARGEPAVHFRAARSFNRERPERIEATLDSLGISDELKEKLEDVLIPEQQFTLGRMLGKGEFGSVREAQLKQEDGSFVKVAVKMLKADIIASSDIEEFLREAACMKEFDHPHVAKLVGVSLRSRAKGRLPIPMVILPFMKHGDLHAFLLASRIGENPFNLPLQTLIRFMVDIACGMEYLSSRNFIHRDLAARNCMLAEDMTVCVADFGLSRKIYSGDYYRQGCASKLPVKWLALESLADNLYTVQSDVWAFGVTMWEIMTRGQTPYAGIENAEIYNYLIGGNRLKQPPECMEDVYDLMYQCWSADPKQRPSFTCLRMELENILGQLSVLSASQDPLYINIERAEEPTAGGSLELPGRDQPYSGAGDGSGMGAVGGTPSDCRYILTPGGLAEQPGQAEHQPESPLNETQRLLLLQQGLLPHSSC
In short: as §1

Row | Structure (SMILES) | IC50 (FLT3) [µM] | IC50 (TYRO3) [µM]
1 | CC[C@H](C)Nc1ncc2c(-c3ccc(CN4CCN(C)CC4)cc3)cc(C3CCC(C)(O)CC3)n2n1 (stereo in doubt) [Compound 131, (cis)-4-(2-((S)-sec-butylamino)-5-(4-((4-methylpiperazin-1-yl)methyl)phenyl)pyrrolo[2,1-f][1,2,4]triazin-7-yl)-1-methylcyclohexanol] | ≤ 0.1 | ≤ 0.1
2 | COC[C@H](C)Nc1ncc2c(-c3conc3C)cc([C@H]3CC[C@H](O)CC3)n2n1 [Compound 508] | 1 to 10 | ≤ 0.1
3 | COC[C@H](C)Nc1ncc2c(-c3ccnc(N4CCOC5(COC5)C4)c3)cc([C@H]3CC[C@H](O)CC3)n2n1 [Compound 480] | 0.1 to 1 | ≤ 0.1
4 | COC[C@H](C)Nc1ncc2c(-c3ccnc(NC4CCOCC4)c3)cc([C@H]3CC[C@H](O)CC3)n2n1 [Compound 431] | 0.1 to 1 | ≤ 0.1
5 | COC[C@H](C)Nc1ncc2c(C3=C[C@@H]4CC[C@H](C3)N4C(=O)N3CCOCC3)cc([C@H]3CC[C@H](O)CC3)n2n1 [Compound 463] | 0.1 to 1 | ≤ 0.1
6 | COC[C@H](C)Nc1ncc2c(-c3cnn(C4COC4)c3)cc(-c3ccc(OC)cc3)n2n1 [Compound 502] | 1 to 10 | ≤ 0.1
7 | COC[C@H](C)Nc1ncc2c(-c3ccnc(N4CCN(C5COC5)CC4)c3)cc([C@H]3CC[C@H](O)CC3)n2n1 [Compound 486] | 1 to 10 | ≤ 0.1
8 | COC[C@H](C)Nc1ncc2c(-c3ccnc(N4CC5(COC5)C4)c3)cc([C@H]3CC[C@H](O)CC3)n2n1 [Compound 426] | 0.1 to 1 | ≤ 0.1
9 | COC[C@H](C)Nc1ncc2c(C3=C[C@@H]4CC[C@H](C3)N4C)cc([C@H]3CC[C@H](O)CC3)n2n1 [Compound 465] | 1 to 10 | ≤ 0.1
10 | COC[C@H](C)Nc1ncc2c(-c3cnn(C(C)(C)C(=O)N4CCC(C)(O)CC4)c3)cc([C@H]3CC[C@H](O)CC3)n2n1 [Compound 450] | 1 to 10 | ≤ 0.1
11 | COC[C@H](C)Nc1ncc2c(-c3cnn([C@H]4CCN(C)C4=O)c3)cc([C@H]3CC[C@H](O)CC3)n2n1 [Compound 470] | 0.1 to 1 | ≤ 0.1
12 | COC[C@H](C)Nc1ncc2c(-c3ccnc(Oc4cccnc4)c3)cc([C@H]3CC[C@H](O)CC3)n2n1 [Compound 490] | 0.1 to 1 | ≤ 0.1
13 | C[C@@H](COC(F)F)Nc1ncc2c(-c3cnn(CCC#N)c3)cc([C@H]3CC[C@H](O)CC3)n2n1 [Compound 437] | ≤ 0.1 | ≤ 0.1
14 | COC[C@H](C)Nc1ncc2c(-c3ccc(CC(=O)O)cc3)cc([C@H]3CC[C@H](O)CC3)n2n1 [Compound 133] | 0.1 to 1 | ≤ 0.1
15 | COC[C@H](C)Nc1ncc2c(-c3ccnc(N4CCC5(CC4)COC5)c3)cc([C@H]3CC[C@H](O)CC3)n2n1 [Compound 427] | 0.1 to 1 | ≤ 0.1
16 | COC[C@H](C)Nc1ncc2c([C@H]3CC[C@@H](C(=O)N4CCOCC4)CC3)cc([C@H]3CC[C@H](O)CC3)n2n1 [Compound 484] | 1 to 10 | ≤ 0.1
17 | C[C@@H](CC(F)(F)F)Nc1ncc2c(C3=CCNCC3)cc([C@H]3CC[C@H](O)CC3)n2n1 [Compound 442] | ≤ 0.1 | ≤ 0.1
18 | CC[C@H](C)Nc1ncc2c(C3=CCNCC3)cc([C@H]3CC[C@H](O)CC3)n2n1 [Compound 130] | ≤ 0.1 | ≤ 0.1

Row | Structure (SMILES) | IC50 (FLT3) [µM] | IC50 (TYRO3) [µM]
19 | COC[C@H](C)Nc1ncc2c(-c3ccnc(N4CCC5(COC5)C4)c3)cc([C@H]3CC[C@H](O)CC3)n2n1 [Compound 493] | 0.1 to 1 | ≤ 0.1
20 | COC[C@H](C)Nc1ncc2c(-c3cnn(C(C)(C)c4nnc(C)o4)c3)cc([C@H]3CC[C@H](O)CC3)n2n1 [Compound 440] | 1 to 10 | ≤ 0.1
21 | COC[C@H](C)Nc1ncc2c(-c3cnn(C(C)(C)CN4CCOCC4)c3)cc([C@H]3CC[C@H](O)CC3)n2n1 [Compound 459] | 1 to 10 | ≤ 0.1
22 | COC[C@H](C)Nc1ncc2c(-c3cnn(CC4CCO4)c3)cc([C@H]3CC[C@H](O)CC3)n2n1 (stereo partly drawn) [Compound 439] | 0.1 to 1 | ≤ 0.1
23 | COC[C@H](C)Nc1ncc2c(-c3ccnc(N4Cc5nc(C)sc5C4)c3)cc([C@H]3CC[C@H](O)CC3)n2n1 [Compound 479, (trans)-4-(2-(((S)-1-methoxypropan-2-yl)amino)-5-(2-(2-methyl-4H-pyrrolo[3,4-d]thiazol-5(6H)-yl)pyridin-4-yl)pyrrolo[2,1-f][1,2,4]triazin-7-yl)cyclohexanol] | 1 to 10 | ≤ 0.1
24 | COC[C@H](C)Nc1ncc2c(-c3cnn(C[C@H]4CC(=O)N(C)C4)c3)cc([C@H]3CC[C@H](O)CC3)n2n1 [Compound 475] | 0.1 to 1 | ≤ 0.1
25 | CCC(=O)N1CCN(c2cc(-c3cc([C@H]4CC[C@H](O)CC4)n4nc(N[C@@H](C)COC)ncc34)ccn2)CC1 [Compound 432] | 0.1 to 1 | ≤ 0.1
26 | C[C@@H](CC(F)F)Nc1ncc2c(-c3ccc(S(C)(=O)=O)nc3)cc([C@H]3CC[C@H](O)CC3)n2n1 [Compound 489] | ≤ 0.1 | ≤ 0.1
27 | COC[C@H](C)Nc1ncc2c(-c3cnn(C4COC4)c3)cc([C@H]3CC[C@](C)(O)CC3)n2n1 (single isomer, unassigned) [Compound 452] | 0.1 to 1 | ≤ 0.1
28 | COC[C@H](C)Nc1ncc2c(-c3ccnc(N4CCc5nc(C)sc5C4)c3)cc([C@H]3CC[C@H](O)CC3)n2n1 [Compound 509] | 1 to 10 | ≤ 0.1
29 | CNS(=O)(=O)c1ccc(-c2cc([C@H]3CC[C@H](O)CC3)n3nc(N[C@@H](C)COC(F)F)ncc23)cn1 [Compound 424] | 0.1 to 1 | ≤ 0.1
30 | COC[C@H](C)Nc1ncc2c(-c3csc(C(=O)N4CCOCC4)c3)cc([C@H]3CC[C@H](O)CC3)n2n1 [Compound 444] | 0.1 to 1 | ≤ 0.1
31 | C[C@H](CC(F)(F)F)Nc1ncc2c(C3=C[C@H]4CC[C@@H](C3)N4C(=O)OC(C)(C)C)cc([C@H]3CC[C@H](O)CC3)n2n1 [Compound 456] | ≤ 0.1 | ≤ 0.1
32 | COC[C@H](C)Nc1ncc2c(-c3ccnc(N4CCN(C(=O)C5COC5)CC4)c3)cc([C@H]3CC[C@H](O)CC3)n2n1 [Compound 500] | 0.1 to 1 | ≤ 0.1
33 | COC[C@H](C)Nc1ncc2c(-c3ccnc(N4CCN(S(=O)(=O)C(F)(F)F)CC4)c3)cc([C@H]3CC[C@H](O)CC3)n2n1 [Compound 487] | 1 to 10 | ≤ 0.1
34 | COC[C@H](C)Nc1ncc2c(-c3cnn(C4COC4)c3)cc([C@H]3CC[C@@](C)(O)CC3)n2n1 (single isomer, unassigned) [Compound 453] | 0.1 to 1 | ≤ 0.1
35 | COC[C@H](C)Nc1ncc2c(-c3ccnc(N4CCOCC4=O)c3)cc([C@H]3CC[C@H](O)CC3)n2n1 [Compound 423] | 0.1 to 1 | ≤ 0.1
36 | C[C@@H](CC(F)(F)F)Nc1ncc2c(C3=C[C@@H]4CC[C@H](C3)N4)cc([C@H]3CC[C@H](O)CC3)n2n1 [Compound 499] | 0.1 to 1 | ≤ 0.1

From patent publication US11040981B2, “Pyrrolotriazine compounds and methods of inhibiting TAM kinases” (Syros Pharmaceuticals, Inc., priority 2017, dated 2021)
